Legend:
[1] = tested on: E1, UbcH5c, UbcH7, HOIL-1L, RNF144A, HHARI, TRIAD3A RBR domains, NEDD4L, E6AP, OTULIN, CYLD-1; assay: LC-MS-based enzyme counter screen; type: binding; details: 2-fold excess, positive control
Procedure: 0.1% formic acid in water. The samples were analyzed on a Q Exactive MS (Thermo Fisher) coupled to an Easy-nLC chromatographic system (Thermo Fisher) with a nano ESI source (Thermo Fisher). Each sample (2 µL) was injected and trapped on a C18 Acclaim pepMap 100 enrichment column (75 µm id × 2 cm, 3 µm nanoviper, Thermo Fisher). The samples were transferred to a C18 Acclaim PepMap RSLC analytical column (75 µm id × 15 cm, 2 µm, Thermo Fisher) at 300 nL/min. Mobile phase A (0.1% Formic acid in water, v/v); mobile phase B (0.1% […]
min (70-95% B), 56-61 min (95% B). The nanospray ionisation source was operated in the positive mode with spray voltage set at 2 kV, and heated capillary at 250 °C. The Q Exactive was operated in the data dependent mode and the top 15 most intense ions were subjected to HCD fragmentation with normalised collision energy set at 26%. The MS1 scans were performed at a resolution of 70 000 from 400-1600 m/z, automatic gain control (AGC) value 3 e6, maximum injection time 100 ms. […]
Compounds (1) and (5) were screened against E1, the E2s UbcH5c and UbcH7, the RBR domains of the E3 ligases HOIP, HOIL-1L, RNF144A, HHARI and TRIAD3A, the HECT E3 ligases NEDD4L and E6AP, and the DUBs OTULIN and CYLD-1. […] The samples were analyzed after 0.5 and 24 h incubation. […]

[2] = tested on: untransfected HEK293T cells; assay: CellTiter-Glo Luminescent cell viability assay, untransfected cells; type: cell-based; details: 17 h
Procedure: Separately, untransfected HEK293T cells were incubated with compounds (1), (11a) and (17) for 17 h, and the cell viability determined using the CellTiter-Glo® Luminescent Cell Viability Assay as described above. Average data from three independent experiments each done in triplicate were plotted as percentage cell viability normalized to DMSO control with GraFit (v.7) against different compound concentrations and fitted using the IC50-4 parameter logistic (Supplementary […]
Supplementary Figure S14. A-D) Uncropped concentration-response graphs (A and D from Figure 6D) and Western blots from the NF-κB reporter and cell viability assays. HEK293T cells transfected with His6-tagged HOIP, HOIL-1L and SHARPIN (H/H/S) were treated with compounds (11a) and (17) for 17 h and the relative NF-κB activity and cell viability was plotted against compound concentration. E) Cell viability of untransfected HEK293T cells treated with compound (1), (11a) and (17) for 17 h. The observed cell toxicity for compound (1) was in line that previously […]
(1 picture or pasted object on this page, not shown here)

Cc1ccc(S(=O)(=O)/C=C/C#N)cc1 [Compound 1, BAY 11–7082, reference compound]
labeling of counter screen proteins [1]: rapid and extensive labeling for most proteins | cell viability [2]: cell toxicity
